Data as given in ChEMBL document CHEMBL1201862, “PubChem BioAssay data set” (2004).
Values joined by “and” are separate entries in the source; they are usually repeats but may differ in a detail not shown here. Equal values may be shown once.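 Values below derive from 48-hour exposures of cells grown in 96-well plates, with endpoints linearly interpolated between the two concentrations bracketing the appropriate inhibition level. GI50 is the concentration that inhibits growth by half.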 Active and inactive are the calls of the source. Rule as the data show it: active = GI50 up to about 1.1 µM and inactive = higher.

What was measured:
Test in all cases: NCI tumour cell line growth inhibition, 48 h
[1] = test system: SNB-19
[2] = test system: SK-MEL-28
[3] = test system: UACC-257
[4] = test system: HT-29
[5] = test system: MDA-MB-435
[6] = test system: SW-620
[7] = test system: UACC-62
[8] = test system: Malme-3M
[9] = test system: A549
[10] = test system: RXF 393
[11] = test system: SF-268
[12] = test system: HOP-62
[13] = test system: SF-295
[14] = test system: A498
[15] = test system: DU-145
[16] = test system: SR
[17] = test system: OVCAR-3
[18] = test system: HL-60
[19] = test system: ACHN
[20] = test system: SK-MEL-2

Measured: GI50

Cc1ccc(-c2cc(O)c3nc4ccccc4n3c2)cc1
inactive: [1] > 100 µM | [2] > 100 µM | [3] > 100 µM | [4] > 100 µM | [5] 5.27 µM | [6] > 100 µM | [7] > 100 µM | [8] > 100 µM | [9] > 100 µM | [10] > 100 µM | [11] > 100 µM | [12] > 100 µM | [13] > 100 µM | [14] > 100 µM | [15] > 100 µM | [16] > 100 µM | [17] > 100 µM | [18] > 100 µM

O=C(O)c1ccc([N+](=O)[O-])c(P(=O)(O)O)c1
inactive: [1] > 100 µM | [19] > 100 µM | [2] > 100 µM | [20] > 100 µM | [3] > 100 µM | [4] > 100 µM | [5] > 100 µM | [6] > 100 µM | [7] > 100 µM | [9] > 100 µM | [10] > 100 µM | [12] > 100 µM | [13] > 100 µM | [14] > 100 µM | [15] > 100 µM | [16] > 100 µM | [17] > 100 µM | [18] > 100 µM

O=c1[nH]c(N/N=C\C(O)C(O)C(O)CO)nc2ccccc12 (configuration not stated)
inactive: [1] > 100 µM | [19] > 100 µM | [2] > 100 µM | [20] > 100 µM | [3] > 100 µM | [4] > 100 µM | [5] > 100 µM | [6] > 100 µM | [7] > 100 µM | [9] > 100 µM | [11] > 100 µM | [12] > 100 µM | [13] > 100 µM | [14] > 100 µM | [15] > 100 µM | [16] > 100 µM and 56.2 µM | [17] > 100 µM | [18] > 100 µM

Cc1ccc(/C(O)=C/c2nc3ccccc3oc2=O)cc1
inactive: [1] > 100 µM | [19] 58.1 µM | [20] > 100 µM | [3] > 100 µM | [4] > 100 µM | [5] 25.6 µM | [7] 37.7 µM | [8] 34.1 µM | [9] > 100 µM | [10] > 100 µM | [11] > 100 µM | [12] > 100 µM | [13] 59.6 µM | [14] 78.3 µM | [15] > 100 µM | [16] 26.9 µM | [17] 51.2 µM

CC(=O)/C=C/C=C(\C)CC/C=C(\C)CC(C)C
inactive: [1] 42.4 µM | [19] 29.9 µM | [2] 33.9 µM | [20] 20 µM | [3] 23.3 µM | [4] 30.1 µM | [5] 27.9 µM | [6] 17.1 µM | [7] 18.1 µM | [9] 34 µM | [10] 16.2 µM | [11] 39.7 µM | [12] 41.3 µM | [13] 30.8 µM | [14] 22 µM | [15] 58.6 µM | [16] 16.1 µM | [17] 26.4 µM | [18] 13 µM

OCC1OC(n2cnc3c2N=CNC[C@H]3O)C(Cl)C1O (some centres not stated)
inactive: [1] > 100 µM | [19] > 100 µM | [2] > 100 µM | [20] > 100 µM | [3] > 100 µM | [4] > 100 µM | [5] > 100 µM | [6] > 100 µM | [7] > 100 µM | [8] > 100 µM | [9] > 100 µM | [11] > 100 µM | [12] > 100 µM | [13] > 100 µM | [14] > 100 µM | [15] > 100 µM | [16] > 100 µM | [17] > 100 µM | [18] > 100 µM

O=C(Cc1ccc(OCc2cccc(Cl)c2)cc1)NO
inactive: [1] 37.2 µM | [19] 25.2 µM | [2] 32.9 µM | [20] 21 µM | [3] 53.5 µM | [4] 27 µM | [5] 41.8 µM | [6] 31.3 µM | [7] 18.7 µM | [9] 27.5 µM | [10] 26 µM | [11] 20 µM | [12] 24.6 µM | [13] 32 µM | [14] 2.7 µM | [15] 21.5 µM | [16] 5.81 µM | [17] 22.2 µM | [18] 12.1 µM

COC(=O)C1(Cc2ccccc2)Cc2cc3c(cc2C1O)CCC3 (configuration not stated)
inactive: [19] 17.1 µM | [2] 16.1 µM | [3] 18.2 µM | [4] 13.8 µM | [5] 16.3 µM | [6] 13.2 µM | [7] 16.9 µM | [8] 14 µM | [9] 24 µM | [10] 15 µM | [11] 30.3 µM | [12] 19.3 µM | [13] 27 µM | [14] 19.7 µM | [15] 15.2 µM | [16] 26.7 µM | [17] 16.4 µM | [18] 24.5 µM

NC(Cc1c[nH]c2cc([N+](=O)[O-])ccc12)C(=O)O (configuration not stated)
inactive: [1] > 100 µM | [19] > 100 µM | [2] > 100 µM | [20] > 100 µM | [3] > 100 µM | [4] > 100 µM | [5] > 100 µM | [6] > 100 µM | [7] > 100 µM | [8] > 100 µM | [9] > 100 µM | [10] > 100 µM | [11] > 100 µM | [12] > 100 µM | [13] > 100 µM | [14] > 100 µM | [15] > 100 µM | [16] > 100 µM | [17] > 100 µM

COc1ccc2c(=O)c3cc([N+](=O)[O-])ccc3n(C)c2c1
inactive: [1] > 100 µM | [19] > 100 µM | [2] > 100 µM | [20] > 100 µM | [3] > 100 µM | [5] > 100 µM | [6] > 100 µM | [7] > 100 µM | [8] > 100 µM | [9] > 100 µM | [10] > 100 µM | [11] > 100 µM | [13] > 100 µM | [14] > 100 µM | [15] > 100 µM | [16] > 100 µM | [17] > 100 µM | [18] > 100 µM

Cc1cc(=O)[nH]c2cc(NC(=O)C(CCCNC(=N)N)NC(=O)OCc3ccccc3)ccc12 (configuration not stated)
inactive: [1] > 100 µM | [19] > 100 µM | [2] > 100 µM | [20] > 100 µM | [3] > 100 µM | [4] > 100 µM | [5] > 100 µM | [6] > 100 µM | [7] > 100 µM | [8] > 100 µM | [9] > 100 µM | [11] > 100 µM | [12] > 100 µM | [13] 48.5 µM | [14] > 100 µM | [15] > 100 µM | [16] > 100 µM | [17] > 100 µM | [18] > 100 µM
